In US10670605B2, “Cysteine reactive probes and uses thereof” (The Scripps Research Institute, priority 2015, dated 2020):
“And” between values parts separate entries of the source, which are not always exact repeats. Equal values may be shown once.

Key:
Experiment in all cases: Competitive isoTOP-ABPP, cell lysates
Format in all cases: binding
[1] = target: T1, ACAT1 C413 (P24752) (Homo sapiens, UniProt P24752); conditions: for isoTOP-ABPP reactivity ratio, P24752_C413: 500 μm
T1 sequence (P24752 34-427): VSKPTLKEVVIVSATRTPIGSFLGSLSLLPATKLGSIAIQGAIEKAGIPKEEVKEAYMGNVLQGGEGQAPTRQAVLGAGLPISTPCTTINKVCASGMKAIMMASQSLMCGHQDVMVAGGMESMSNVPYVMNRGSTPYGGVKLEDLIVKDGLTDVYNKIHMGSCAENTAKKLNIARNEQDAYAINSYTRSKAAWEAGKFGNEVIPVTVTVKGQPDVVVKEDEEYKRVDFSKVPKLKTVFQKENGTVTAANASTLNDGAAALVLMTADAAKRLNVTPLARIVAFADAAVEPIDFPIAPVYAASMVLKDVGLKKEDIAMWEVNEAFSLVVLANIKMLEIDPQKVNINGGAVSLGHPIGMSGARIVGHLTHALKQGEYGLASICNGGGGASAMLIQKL

[2] = target: T2, ACAT1 C119 (P24752) (Homo sapiens, UniProt P24752); conditions: for isoTOP-ABPP reactivity ratio, P24752_C119: 500 μm
T2 sequence (P24752 34-427): T1 sequence (P24752 34-427)

[3] = target: SMARCC2 C145 (Q8TAQ2) (Homo sapiens, UniProt Q8TAQ2); conditions: for isoTOP-ABPP reactivity ratio, Q8TAQ2_C145: 500 μm
[4] = target: STAT3 C259 (P40763) (Homo sapiens, UniProt P40763); conditions: for isoTOP-ABPP reactivity ratio, P40763_C259: 500 μm, in-vitro_ramos_231
[5] = target: PRMT1 C109 (Q99873) (Homo sapiens, UniProt Q99873); conditions: for isoTOP-ABPP reactivity ratio, Q99873_C109: 500 μm
[6] = target: T3, PDIA6 C190 (Q15084) (Homo sapiens, UniProt Q15084); conditions: for isoTOP-ABPP reactivity ratio, Q15084_C190: 500 μm
T3 sequence (Q15084 20-440): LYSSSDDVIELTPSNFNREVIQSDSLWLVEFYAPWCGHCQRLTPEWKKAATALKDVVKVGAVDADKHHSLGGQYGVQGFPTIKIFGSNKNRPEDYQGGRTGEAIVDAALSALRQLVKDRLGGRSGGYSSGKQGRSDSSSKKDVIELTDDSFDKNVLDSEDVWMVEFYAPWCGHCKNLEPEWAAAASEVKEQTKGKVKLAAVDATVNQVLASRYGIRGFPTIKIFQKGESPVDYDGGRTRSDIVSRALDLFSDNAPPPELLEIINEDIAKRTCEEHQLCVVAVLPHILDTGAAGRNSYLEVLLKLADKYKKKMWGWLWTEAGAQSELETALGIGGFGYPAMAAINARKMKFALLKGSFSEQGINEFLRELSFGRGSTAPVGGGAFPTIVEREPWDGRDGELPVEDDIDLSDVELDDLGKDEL

[7] = target: T4, UBE2S C118 (Q16763) (Homo sapiens, UniProt Q16763); conditions: for isoTOP-ABPP reactivity ratio, Q16763_C118: 500 μm
T4 sequence (Q16763 1-222): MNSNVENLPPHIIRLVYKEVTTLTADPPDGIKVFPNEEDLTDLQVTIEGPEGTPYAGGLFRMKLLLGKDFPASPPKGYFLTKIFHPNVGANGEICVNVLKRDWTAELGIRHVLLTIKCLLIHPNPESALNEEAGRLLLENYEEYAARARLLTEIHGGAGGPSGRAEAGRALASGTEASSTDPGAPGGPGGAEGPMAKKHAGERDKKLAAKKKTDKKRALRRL

Sequence of PRMT1 C109 (Q99873) (Q99873 whole entry): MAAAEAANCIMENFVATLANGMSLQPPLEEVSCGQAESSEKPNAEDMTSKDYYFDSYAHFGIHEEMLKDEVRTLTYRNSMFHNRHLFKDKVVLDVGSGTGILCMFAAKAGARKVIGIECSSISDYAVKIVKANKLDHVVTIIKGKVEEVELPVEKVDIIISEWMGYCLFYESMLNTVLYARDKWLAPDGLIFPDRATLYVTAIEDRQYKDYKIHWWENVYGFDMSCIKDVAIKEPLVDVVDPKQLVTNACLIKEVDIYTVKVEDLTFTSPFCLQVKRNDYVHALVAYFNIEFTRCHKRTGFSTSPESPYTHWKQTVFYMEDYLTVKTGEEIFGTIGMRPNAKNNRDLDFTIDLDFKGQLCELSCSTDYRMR
Sequence of STAT3 C259 (P40763) (P40763 whole entry): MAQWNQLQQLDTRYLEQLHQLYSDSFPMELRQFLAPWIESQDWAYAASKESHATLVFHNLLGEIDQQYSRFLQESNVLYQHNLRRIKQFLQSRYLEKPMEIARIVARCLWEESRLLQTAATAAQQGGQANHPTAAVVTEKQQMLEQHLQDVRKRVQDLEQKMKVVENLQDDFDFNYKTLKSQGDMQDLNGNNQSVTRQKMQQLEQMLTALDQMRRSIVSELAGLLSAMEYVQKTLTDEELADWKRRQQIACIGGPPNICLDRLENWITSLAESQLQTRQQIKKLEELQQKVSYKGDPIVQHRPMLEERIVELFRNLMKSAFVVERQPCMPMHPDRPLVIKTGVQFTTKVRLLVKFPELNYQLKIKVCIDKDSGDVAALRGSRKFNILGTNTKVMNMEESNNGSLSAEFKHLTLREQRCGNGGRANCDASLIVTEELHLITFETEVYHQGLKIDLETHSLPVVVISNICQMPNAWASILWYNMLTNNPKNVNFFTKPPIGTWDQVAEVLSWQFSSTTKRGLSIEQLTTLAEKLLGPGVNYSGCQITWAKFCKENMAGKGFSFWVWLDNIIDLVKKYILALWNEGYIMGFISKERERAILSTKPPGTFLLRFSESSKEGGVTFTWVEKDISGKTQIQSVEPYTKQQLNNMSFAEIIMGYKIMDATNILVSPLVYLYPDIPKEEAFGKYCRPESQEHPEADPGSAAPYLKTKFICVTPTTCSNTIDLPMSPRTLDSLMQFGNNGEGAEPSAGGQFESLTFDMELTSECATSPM
Sequence of SMARCC2 C145 (Q8TAQ2) (Q8TAQ2 whole entry): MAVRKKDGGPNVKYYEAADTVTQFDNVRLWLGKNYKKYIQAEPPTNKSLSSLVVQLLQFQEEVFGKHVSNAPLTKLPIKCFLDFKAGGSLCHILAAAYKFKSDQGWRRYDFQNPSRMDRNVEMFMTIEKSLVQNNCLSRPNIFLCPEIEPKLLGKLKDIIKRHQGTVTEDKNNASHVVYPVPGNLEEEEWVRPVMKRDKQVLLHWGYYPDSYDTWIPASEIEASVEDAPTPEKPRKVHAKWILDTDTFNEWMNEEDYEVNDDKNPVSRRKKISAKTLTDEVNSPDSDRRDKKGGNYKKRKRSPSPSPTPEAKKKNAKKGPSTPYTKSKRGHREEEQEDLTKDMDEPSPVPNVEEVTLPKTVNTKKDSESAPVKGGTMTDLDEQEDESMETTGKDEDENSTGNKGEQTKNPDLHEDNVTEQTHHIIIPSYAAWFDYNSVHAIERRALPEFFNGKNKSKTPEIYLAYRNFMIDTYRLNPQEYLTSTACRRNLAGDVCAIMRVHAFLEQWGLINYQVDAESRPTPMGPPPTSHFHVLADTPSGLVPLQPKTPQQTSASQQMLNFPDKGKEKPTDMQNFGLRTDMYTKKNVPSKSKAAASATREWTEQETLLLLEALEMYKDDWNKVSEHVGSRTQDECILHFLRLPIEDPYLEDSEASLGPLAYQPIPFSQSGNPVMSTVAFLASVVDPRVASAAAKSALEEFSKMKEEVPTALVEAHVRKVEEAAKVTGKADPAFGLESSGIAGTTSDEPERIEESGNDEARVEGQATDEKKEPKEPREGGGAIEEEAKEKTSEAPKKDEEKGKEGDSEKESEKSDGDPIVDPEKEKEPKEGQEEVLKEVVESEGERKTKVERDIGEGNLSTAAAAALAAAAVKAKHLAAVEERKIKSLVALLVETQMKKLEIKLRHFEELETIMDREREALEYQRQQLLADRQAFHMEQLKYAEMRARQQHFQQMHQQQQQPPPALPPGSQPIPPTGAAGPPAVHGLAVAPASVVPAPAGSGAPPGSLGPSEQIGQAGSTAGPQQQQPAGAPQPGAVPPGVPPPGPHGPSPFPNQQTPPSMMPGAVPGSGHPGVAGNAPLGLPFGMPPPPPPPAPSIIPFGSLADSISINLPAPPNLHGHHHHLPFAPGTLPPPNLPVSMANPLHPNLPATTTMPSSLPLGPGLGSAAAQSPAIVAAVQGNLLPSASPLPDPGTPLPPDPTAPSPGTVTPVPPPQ

Compound | isoTOP-ABPP ratio (reactivity profile), P24752_C413 ([1]; 500 μm in-vitro ramos) | isoTOP-ABPP ratio (reactivity profile), P24752_C119 ([2]; 500 μm in-vitro ramos) | isoTOP-ABPP ratio (reactivity profile), Q8TAQ2_C145 ([3]; 500 μm in-vitro ramos) | isoTOP-ABPP ratio (reactivity profile), P40763_C259 ([4]; 500 μm in-vitro ramos) | isoTOP-ABPP ratio (reactivity profile), Q99873_C109 ([5]; 500 μm in-vitro ramos) | isoTOP-ABPP ratio (reactivity profile), Q15084_C190 ([6]; 500 μm in-vitro ramos) | isoTOP-ABPP ratio (reactivity profile), Q16763_C118 ([7]; 500 μm in-vitro ramos) | isoTOP-ABPP ratio (reactivity profile), P24752_C413 ([1]; 500 μm in-vitro ramos_231) | isoTOP-ABPP ratio (reactivity profile), P24752_C119 ([2]; 500 μm in-vitro ramos_231) | isoTOP-ABPP ratio (reactivity profile), Q8TAQ2_C145 ([3]; 500 μm in-vitro ramos_231) | isoTOP-ABPP ratio (reactivity profile), P40763_C259 ([4]; 500 μm in-vitro ramos_231) | isoTOP-ABPP ratio (reactivity profile), Q99873_C109 ([5]; 500 μm in-vitro ramos_231) | isoTOP-ABPP ratio (reactivity profile), Q15084_C190 ([6]; 500 μm in-vitro ramos_231) | isoTOP-ABPP ratio (reactivity profile), Q16763_C118 ([7]; 500 μm in-vitro ramos_231) | isoTOP-ABPP reactivity ratio, P24752_C413 ([1]; in-vitro_ramos) | isoTOP-ABPP reactivity ratio, P24752_C413 ([1]; in-vitro_ramos_231) | isoTOP-ABPP reactivity ratio, P24752_C119 ([2]; in-vitro_ramos) | isoTOP-ABPP reactivity ratio, P24752_C119 ([2]; in-vitro_ramos_231) | isoTOP-ABPP reactivity ratio, Q8TAQ2_C145 ([3]; in-vitro_ramos) | isoTOP-ABPP reactivity ratio, Q8TAQ2_C145 ([3]; in-vitro_ramos_231) | also measured
CC(Br)C(=O)Nc1cc(C(F)(F)F)cc(C(F)(F)F)c1 (stereo not shown) [compound 24] | 1.2 | 1.3 | 5.4 | 1.7 | 1.0 | 1.7 | 1.2 | – | – | – | – | – | – | – | – | – | – | – | – | – | –
CC(Cl)C(=O)Nc1cc(C(F)(F)F)cc(C(F)(F)F)c1 (stereo not shown) [compound 25] | – | – | – | – | – | – | – | 1.0 | 1.0 | 0.9 | 0.9 | 1.0 | 1.0 | 1.0 | – | – | – | – | – | – | –
CC(C)CCOCCNC(=O)CCl [compound 27] | 1.3 | 1.0 | 1.2 | – | 1.0 | 1.1 | 0.9 | 0.9 and 1.1 | 0.9 and 1.0 | 0.9 | 0.7 | 0.7 and 0.9 | 0.9 | 0.8 | – | – | – | – | – | – | –
COc1ccccc1OCCNC(=O)CCl [compound 28] | 1.4 | 1.1 | 1.2 | 1.1 | 1.1 | 1.6 | 0.8 | 1.2 | 1.1 | 1.1 | 1.0 | 0.8 | 1.1 | 1.0 | – | – | – | – | – | – | –
C=CC(=O)N(Cc1cccnc1)c1cc(C(F)(F)F)cc(C(F)(F)F)c1 [compound 31] | – | – | – | – | – | – | – | – | – | – | – | – | – | – | 1.0 | 1.6 | 0.7 | 1.3 | 0.9 | 1.1 | isoTOP-ABPP reactivity ratio, P40763_C259 [4]: 1.7; isoTOP-ABPP reactivity ratio, Q99873_C109 ([5]; in-vitro_ramos): 1.3; isoTOP-ABPP reactivity ratio, Q99873_C109 ([5]; in-vitro_ramos_231): 1.0; isoTOP-ABPP reactivity ratio, Q15084_C190 ([6]; in-vitro_ramos): 1.2; isoTOP-ABPP reactivity ratio, Q15084_C190 ([6]; in-vitro_ramos_231): 1.3; isoTOP-ABPP reactivity ratio, Q16763_C118 ([7]; in-vitro_ramos): 0.8; isoTOP-ABPP reactivity ratio, Q16763_C118 ([7]; in-vitro_ramos_231): 0.9
CC(C)(C)c1cc(NC(=O)CCl)on1 [compound 32] | – | – | – | – | – | – | – | – | – | – | – | – | – | – | 4.1 | 6.8 | 1.3 | 1.7 | 20.0 | 20.0 | isoTOP-ABPP reactivity ratio, P40763_C259 [4]: 10.2; isoTOP-ABPP reactivity ratio, Q99873_C109 ([5]; in-vitro_ramos): 1.8; isoTOP-ABPP reactivity ratio, Q99873_C109 ([5]; in-vitro_ramos_231): 1.7; isoTOP-ABPP reactivity ratio, Q15084_C190 ([6]; in-vitro_ramos): 20.0; isoTOP-ABPP reactivity ratio, Q15084_C190 ([6]; in-vitro_ramos_231): 20.0; isoTOP-ABPP reactivity ratio, Q16763_C118 ([7]; in-vitro_ramos): 1.1; isoTOP-ABPP reactivity ratio, Q16763_C118 ([7]; in-vitro_ramos_231): 1.1
